According to patent publication US8173700B2, “Salts of substituted allophanates and their use in drugs” (Gruenenthal GmbH, priority 2005, dated 2012):

Experiments:
[1] = molecular target: T1, hVR1 (Homo sapiens, UniProt Q8NER1); experiment: Functional investigation at the vanilloid receptor (VR1), FLIPR Ca2+ influx assay, Method II, hVR1; format: cell-based; details: for IC50: suppression of capsaicin-induced Ca2+ influx; for inhibition at 10 µM: test substance 10 μM, CHO K1 cells transfected with VR1, inhibition of Ca2+ influx after 100 nM capsaicin, compared to maximum inhibition with 10 μM capsazepin
T1 construct: expressed in transfected cells; host or cells: CHO K1 cells (ECACC)
Excerpt: (§1) The agonistic and/or antagonistic effects of the test substances on the vanilloid receptor (VR1) can be determined with the following assay. According to this assay the Ca^2+ influx through the channel is quantified by means of a Ca^2+-sensitive dye (Type Fluo-4, Molecular Probes, Europe BV, Leyden, The Netherlands) in the Fluorescent Imaging Plate Reader (FLIPR, Molecular Devices, Sunnyvale, USA).
(§2) Chinese hamster ovary cells (CHO K1-cells, European Collection of Cell Cultures (ECACC) Great Britain) are stably transfected with the VR1 gene. For functional studies, these cells are plated on poly-D-lysine-coated, black 96-well plates with clear bottom (BD Biosciences, Heidelberg, Germany) at a density of 25 000 cells/well. The cells are incubated overnight at 37° C. and 5% CO2 in a culture medium (Nutrient Mixture Ham's F12, 10 vol. % FCS (fetal calf serum), 18 μg/ml L-proline). On the next day the cells are incubated for 30 minutes at 37° C. with Fluo-4 (Fluo-4 2 μM, Pluronic F127 0.01 vol. %, Molecular Probes) in HBSS (Hank's buffered saline solution), (Gibco Invitrogen GmbH, Karlsruhe, Germany). Then the plates are washed 3 times with HBSS buffer and, after further incubation of 15 minutes at room temperature, they are used for Ca^2+ measurement in the FLIPR. The Ca^2+-dependent fluorescence is measured before and after adding the test substances (wavelength λex=^488 nm, λem=540 nm). Quantification is based on measurement of the maximum fluorescence intensity (FC, fluorescence counts) over time.
(§3) The FLIPR protocol comprises 2 additions of the substance. First the test substances (10 μM) are pipetted onto the cells and the Ca^2+ influx is compared with the control (capsaicin 10 μM) (% activation relative to the Ca^2+ signal after adding 10 μM capsaicin). After incubation for 5 minutes, 100 nM capsaicin is applied and the influx of Ca^2+ is determined again.
(§4) Desensitizing agonists and antagonists led to suppression of Ca^2+ influx. The % inhibition is calculated compared to the maximum inhibition attainable with 10 μM capsazepin.

[2] = molecular target: T2, rVR1 (Rattus norvegicus, UniProt O35433); experiment: Functional investigation at the vanilloid receptor (VR1), FLIPR Ca2+ influx assay, Method II, rVR1; format: cell-based; details: for IC50: suppression of capsaicin-induced Ca2+ influx; for rVR1 10 μM Stimulation / inhibition at 10 µM: test substance 10 μM; for rVR1 10 μM Stimulation: % activation relative to the Ca2+ signal after adding 10 μM capsaicin; for inhibition at 10 µM: inhibition of Ca2+ influx after 100 nM capsaicin, compared to maximum inhibition with 10 μM capsazepin
T2 construct: expressed in transfected cells; host or cells: CHO K1 cells (ECACC)
Excerpt: as §1, §2, §3, §4

T1 sequence (Q8NER1 whole entry): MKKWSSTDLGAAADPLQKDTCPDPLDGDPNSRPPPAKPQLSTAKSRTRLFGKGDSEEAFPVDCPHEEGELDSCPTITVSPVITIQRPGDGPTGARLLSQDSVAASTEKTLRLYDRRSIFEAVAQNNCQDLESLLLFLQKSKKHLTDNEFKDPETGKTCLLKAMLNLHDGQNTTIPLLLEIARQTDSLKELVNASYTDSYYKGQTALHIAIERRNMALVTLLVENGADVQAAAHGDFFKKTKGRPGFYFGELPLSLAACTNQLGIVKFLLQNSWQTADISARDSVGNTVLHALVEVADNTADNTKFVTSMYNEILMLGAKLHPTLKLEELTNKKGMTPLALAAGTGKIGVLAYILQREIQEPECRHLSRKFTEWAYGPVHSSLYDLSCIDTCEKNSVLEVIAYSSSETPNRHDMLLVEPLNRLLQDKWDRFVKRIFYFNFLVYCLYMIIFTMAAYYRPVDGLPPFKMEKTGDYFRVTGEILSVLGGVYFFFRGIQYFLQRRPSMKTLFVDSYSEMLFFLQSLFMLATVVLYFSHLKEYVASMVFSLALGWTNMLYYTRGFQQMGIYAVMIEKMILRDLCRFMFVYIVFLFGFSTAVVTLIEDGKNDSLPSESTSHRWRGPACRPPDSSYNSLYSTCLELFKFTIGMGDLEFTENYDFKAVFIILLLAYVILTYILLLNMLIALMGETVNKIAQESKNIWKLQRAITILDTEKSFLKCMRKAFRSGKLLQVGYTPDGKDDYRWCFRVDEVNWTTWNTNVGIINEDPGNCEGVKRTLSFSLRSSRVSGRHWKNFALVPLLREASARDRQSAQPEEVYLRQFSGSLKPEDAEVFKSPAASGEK
T2 sequence (O35433 whole entry): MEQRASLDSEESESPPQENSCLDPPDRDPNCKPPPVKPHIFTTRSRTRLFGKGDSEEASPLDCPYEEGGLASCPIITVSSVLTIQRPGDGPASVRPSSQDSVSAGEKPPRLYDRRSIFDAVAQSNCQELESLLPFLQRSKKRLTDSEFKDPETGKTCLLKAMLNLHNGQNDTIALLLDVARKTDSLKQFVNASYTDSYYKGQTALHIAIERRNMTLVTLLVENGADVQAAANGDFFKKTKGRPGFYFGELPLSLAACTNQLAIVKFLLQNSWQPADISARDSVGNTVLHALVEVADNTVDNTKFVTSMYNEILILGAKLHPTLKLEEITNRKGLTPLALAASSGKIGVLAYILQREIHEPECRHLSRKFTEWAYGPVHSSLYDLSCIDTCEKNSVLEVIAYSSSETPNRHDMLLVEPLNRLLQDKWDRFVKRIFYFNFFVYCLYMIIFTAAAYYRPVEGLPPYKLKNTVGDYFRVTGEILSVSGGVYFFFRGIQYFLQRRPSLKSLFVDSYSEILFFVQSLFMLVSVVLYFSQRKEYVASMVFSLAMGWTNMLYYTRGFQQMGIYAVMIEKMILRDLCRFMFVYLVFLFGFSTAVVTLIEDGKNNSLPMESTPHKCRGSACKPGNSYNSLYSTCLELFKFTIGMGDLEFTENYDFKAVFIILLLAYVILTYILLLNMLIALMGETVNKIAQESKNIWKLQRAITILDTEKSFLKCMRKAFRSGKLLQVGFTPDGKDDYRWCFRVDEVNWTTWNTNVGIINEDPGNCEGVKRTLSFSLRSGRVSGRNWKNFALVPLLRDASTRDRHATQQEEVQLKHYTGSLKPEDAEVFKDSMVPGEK

SMILES	IC50 [1] [µM]	inhibition at 10 µM [1] [%]	IC50 [2] [µM]	rVR1 10 μM Stimulation [2] [%]	inhibition at 10 µM [2] [%]
CCCCCCCCCCCCCCCCOC[C@@H]1CC[C@H](COC(=O)NC(=O)NCC[N+](C)(C)C)O1 (relative stereo) [compound 13, 4-(Trimethylamino-1-ethyl)allophanic acid (cis-5-hexadecyloxymethyltetrahydrofuran-2-yl)methyl ester iodide]	1.1	80.8	1.3	0.36	92.1
CCCCCCCCCCCCOC(=O)NC(=O)NCC[N+](C)(C)C [compound 1, 4-(Trimethylamino-1-ethyl)allophanic acid dodecyl ester iodide]	2.43	95.4	2.1	0.55	103
CCCCCCCCCCCCCCCCOC(=O)NC(=O)NCC[N+]1(C)CCCC1 [compound 2, 4-(Pyrrolidinium-1-ethyl)allophanic acid hexadecyl ester iodide]	0.92	88.9	1.23	−0.02	87.1
CCCCCCCCCCCCCCCCOC(=O)NC(=O)NCCC[N+](C)(C)C [compound 3, 4-(Trimethylamino-1-propyl)allophanic acid hexadecyl ester iodide]	4.27	56.9	1.27	−0.73	94.4
CCCCCCCCCCCCCCCCOCC(COC(=O)NC(=O)NCC[N+](C)(C)C)OC (centres unmarked) [compound 14, 4-(Trimethylamino-1-ethyl)allophanic acid 3-hexadecyloxy-2-methoxypropan-1-yl ester iodide]	2.4	93.1	1.15	0.09	95.5
CCCCCCCCCCCCCCCCOC(=O)NC(=O)NCC[N+](C)(C)C [compound 15, 4-(Trimethylamino-1-ethyl)allophanic acid hexadecyl ester iodide]	3.45	101	2.95	−1.01	109
CCCCCCCCCCCCCCCCOCC1(COC(=O)NC(=O)NCC[N+](C)(C)C)CCCO1 (centres unmarked) [compound 16, 4-(Trimethylamino-1-ethyl)allophanic acid (2-hexadecyloxymethyltetrahydrofuran-2-yl)methyl ester iodide]	1.7	68.6	2.9	0.58	99.3
